Like-named read-outs stand apart in the source and are kept apart here.
Key:
[1] = test system: TNFα; assay: cells; assay type: cell-based, human; settings: Homo sapiens, Monocyte, LPS-stimulated human monocytes, read-out: EC50 TNF
[2] = molecular target: IRAK4 enzyme (Homo sapiens (Human), UniProt Q9NWZ3); assay: biochemical; assay type: biochemical; settings: IRAK4 enzyme, 500 μM ATP
Sequence of IRAK4 enzyme (Q9NWZ3 whole entry): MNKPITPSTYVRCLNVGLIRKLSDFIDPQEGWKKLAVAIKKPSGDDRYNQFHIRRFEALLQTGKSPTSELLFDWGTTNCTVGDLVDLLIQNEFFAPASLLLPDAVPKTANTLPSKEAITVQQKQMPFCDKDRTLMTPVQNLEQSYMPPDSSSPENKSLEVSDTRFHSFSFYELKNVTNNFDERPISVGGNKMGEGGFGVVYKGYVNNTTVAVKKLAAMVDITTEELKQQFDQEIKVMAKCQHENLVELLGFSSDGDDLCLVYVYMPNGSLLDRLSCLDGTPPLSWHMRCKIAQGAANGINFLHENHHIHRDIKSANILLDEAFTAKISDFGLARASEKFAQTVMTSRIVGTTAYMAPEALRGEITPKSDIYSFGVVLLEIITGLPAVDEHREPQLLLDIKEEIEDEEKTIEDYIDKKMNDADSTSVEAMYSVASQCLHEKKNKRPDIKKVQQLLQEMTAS

Row | Compound | EC50 ([1]; TNFα content) [nM] | IC50 ([2]; TR-FRET) [nM] | EC50 ([1]; TNFα by TR-FRET) [nM] | IC50 ([2]; TR-FRET (HTRF)) [nM]
1 | Cc1cc(Nc2cc(-c3ccc4cc(C#N)cnn34)ncc2C(=O)NC[C@@H](F)C(C)(C)O)cnc1F [Example 187, (R)-6-(3-cyanopyrrolo[1,2-b]pyridazin-7-yl)-N-(2-fluoro-3-hydroxy-3-methylbutyl)-4-((6-fluoro-5-methylpyridin-3-yl)amino) nicotinamide] | 152 | 1 | – | –
2 | COC[C@@H]1CCN1c1ccc(Nc2cc(-c3ccc4cc(C#N)cnn34)ncc2C(=O)NC[C@@H](F)C(C)(C)O)cn1 [Example 915, 6-(3-cyanopyrrolo[1,2-b]pyridazin-7-yl)-N-((R)-2-fluoro-3-hydroxy-3-methylbutyl)-4-((6-((S)-2-(methoxymethyl)azetidin-1-yl)pyridin-3-yl)amino) nicotinamide] | – | 1 | 28 | –
3 | CC(C)(O)[C@H](F)CNC(=O)c1cnc(-c2ccc3cc(C#N)cnn23)cc1Nc1ccc(C(C)(C)N2CCOC2=O)cc1 [Example 874, (R)-6-(3-cyanopyrrolo[1,2-b]pyridazin-7-yl)-N-(2-fluoro-3-hydroxy-3-methylbutyl)-4-((4-(2-(2-oxooxazolidin-3-yl)propan-2-yl)phenyl)amino)nicotinamide] | – | < 1 | 13 | –
4 | COc1cc(Nc2cc(-c3ccc4cc(C#N)cnn34)ncc2C(=O)NC[C@@H](F)C(C)(C)O)ncn1 [Example 846, (R)-6-(3-cyanopyrrolo[1,2-b]pyridazin-7-yl)-N-(2-fluoro-3-hydroxy-3-methylbutyl)-4-((6-methoxy-pyrimidin-4-yl)amino) nicotinamide] | – | 2 | 97 | –
5 | CC(C)(O)[C@H](F)CNC(=O)c1cnc(-c2ccc3cc(C#N)cnn23)cc1Nc1ccc2ncsc2c1 [Example 572, (R)-4-(benzo[d]thiazol-6-ylamino)-6-(3-cyano-pyrrolo[1,2-b]pyridazin-7-yl)-N-(2-fluoro-3-hydroxy-3-methylbutyl)nicotinamide] | 66 | – | – | < 1
6 | CC(C)Nc1cc(-c2ccc3cc(C#N)cnn23)ncc1C(=O)NCCc1ccc(S(N)(=O)=O)cc1 [Example 21, 6-(3-cyanopyrrolo[1,2-b]pyridazin-7-yl)-4-(isopropylamino)-N-(4-sulfamoylphenethyl) nicotinamide] | 69 | < 1 | – | –
7 | COc1ccc2nc(Nc3cc(-c4ccc5cc(C#N)cnn45)ncc3C(=O)NC[C@@H](F)C(C)(C)O)sc2c1 [Example 376, (R)-6-(3-cyanopyrrolo[1,2-b]pyridazin-7-yl)-N-(2-fluoro-3-hydroxy-3-methylbutyl)-4-((6-methoxybenzo[d]thiazol-2-yl)amino)nicotinamide] | 736 | 2 | – | –
8 | CC(C)(O)[C@H](F)CNC(=O)c1cnc(-c2ccc3cc(C#N)cnn23)cc1Nc1ccc(-c2c[nH]cn2)cc1 [Example 234, (R)-4-((4-(1H-imidazol-4-yl)phenyl)amino)-6-(3-cyanopyrrolo[1,2-b]pyridazin-7-yl)-N-(2-fluoro-3-hydroxy-3-methylbutyl) nicotinamide] | 33 | < 1 | – | –
9 | CCn1cnc(Nc2cc(-c3ccc4cc(C#N)cnn34)ncc2C(=O)NC[C@@H](F)C(C)(C)O)n1 [Example 128, (R)-6-(3-cyanopyrrolo[1,2-b]pyridazin-7-yl)-4-((1-ethyl-1H-1,2,4-triazol-3-yl)amino)-N-(2-fluoro-3-hydroxy-3-methylbutyl)nicotinamide] | 141 | 1 | – | –
10 | CNC(=O)c1csc(Nc2cc(-c3ccc4cc(C#N)cnn34)ncc2C(=O)NC[C@@H](F)C(C)(C)O)n1 [Example 338, (R)-2-((2-(3-cyanopyrrolo[1,2-b]pyridazin-7-yl)-5-((2-fluoro-3-hydroxy-3-methylbutyl)carbamoyl)pyridin-4-yl)amino)-N-methylthiazole-4-carboxamide] | 304 | 3 | – | –
11 | CC(C)(O)[C@H](F)CNC(=O)c1cnc(-c2ccc3cc(C#N)cnn23)cc1N[C@H]1CC[C@](C)(N)CC1 [Example 535, (R)-4-((4-amino-4-methylcyclohexyl)amino)-6-(3-cyanopyrrolo[1,2-b]pyridazin-7-yl)-N-(2-fluoro-3-hydroxy-3-methylbutyl)nicotinamide] | 999 | – | – | 2
12 | CC(C)(O)[C@H](F)CNC(=O)c1cnc(-c2ccc3cc(C#N)cnn23)cc1N[C@H]1C[C@@H]2CC[C@H]1C2 [Example 101, 4-(((1S,2S,4R)-bicyclo[2.2.1]heptan-2-yl)amino)-6-(3-cyanopyrrolo[1,2-b]pyridazin-7-yl)-N-((R)-2-fluoro-3-hydroxy-3-methylbutyl) nicotinamide] | 82 | < 1 | – | –
13 | Cn1cc(Nc2cc(-c3ccc4cc(C#N)cnn34)ncc2C(=O)NC[C@@H](F)C(C)(C)O)nn1 [Example 58, (R)-6-(3-cyanopyrrolo[1,2-b]pyridazin-7-yl)-N-(2-fluoro-3-hydroxy-3-methylbutyl)-4-((1-methyl-1H-1,2,3-triazol-4-yl)amino)nicotinamide] | 91 | < 1 | – | –
14 | CC(C)(O)[C@H](F)CNC(=O)c1cnc(-c2ccc3cc(C#N)cnn23)cc1N[C@H]1C[C@H](CNS(C)(=O)=O)C1 [Example 831, 6-(3-cyanopyrrolo[1,2-b]pyridazin-7-yl)-N-((R)-2-fluoro-3-hydroxy-3-methylbutyl)-4-(((1r,3R)-3-(methylsulfonamido-methyl)cyclobutyl)amino)nicotinamide] | – | < 1 | 49 | –
15 | CC(C)(O)[C@H](F)CNC(=O)c1cnc(-c2ccc3cc(C#N)cnn23)cc1N[C@H]1C[C@@H]2C[C@H]1CN2 [Example 32, 4-(((1S,4S,5S)-2-azabicyclo[2.2.1]heptan-5-yl)amino)-6-(3-cyano-pyrrolo[1,2-b]pyridazin-7-yl)-N-((R)-2-fluoro-3-hydroxy-3-methylbutyl)nicotinamide] | > 10000 | 3 | – | –
16 | CC(C)(O)[C@H](F)CNC(=O)c1cnc(-c2ccc3cc(C#N)cnn23)cc1Nc1cnn2c1CCCC2 [Example 129, (R)-6-(3-cyanopyrrolo[1,2-b]pyridazin-7-yl)-N-(2-fluoro-3-hydroxy-3-methylbutyl)-4-((4,5,6,7-tetrahydropyrazolo[1,5-a]pyridin-3-yl)amino)nicotinamide] | 377 | 6 | – | –
17 | CN1CCOc2cc(Nc3cc(-c4ccc5cc(C#N)cnn45)ncc3C(=O)N[C@H]3CC[C@H](NC(=O)N4CCOCC4)CC3)ccc21 [Example 860, N-((1r,4r)-4-(6-(3-cyano-pyrrolo[1,2-b]pyridazin-7-yl)-4-((4-methyl-3,4-dihydro-2H-benzo[b][1,4]oxazin-7-yl)amino)nicotin-amido)cyclohexyl) morpholine-4-carboxamide] | – | 2 | 31 | –
18 | COC(=O)N[C@]1(C)CC[C@@H](Nc2cc(-c3ccc4cc(C#N)cnn34)ncc2C(=O)NC[C@@H](F)C(C)(C)O)CC1 [Example 618, methyl ((1R,4r)-4-((2-(3-cyanopyrrolo[1,2-b]pyridazin-7-yl)-5-(((R)-2-fluoro-3-hydroxy-3-methylbutyl)carbamoyl)pyridin-4-yl)amino)-1-methylcyclohexyl) carbamate] | 335 | – | – | 4

— patent US10336762B2 (priority 2017, dated 2019)
